Patent publication US8293231B2, “Methods and compositions for treating ischemia” (Blue Blood Biotech Corp., priority 2005, dated 2012)

Test system: MMP-1, MMP-2, MMP-3, and MMP-9 in HUVEC conditioned medium
Test: Gelatin and casein zymographies
Assay type: cell-based, human
Settings: gelatin zymography
Experimental: (§1) HUVECs were seeded at 80% confluence on 100-mm dishes in M199 medium. After 24 h, cells were rinsed with serum-free M199 twice and incubated in serum-free M199 with various concentrations of TMD23, VEGF (10 ng/mL), or PMA (70 ng/mL) for 12 h. The conditioned medium containing […] secreted proteins was analyzed by gelatin- and casein-based zymographies. The digested area appeared clear on a blue background, indicating the location of matrix metalloproteinase (MMP) activity. To further verify MMP caseinolytic activity, the casein-containing gel was incubated with incubation buffer containing 10 mM EDTA, an inhibitor of MMPs, to observe disappearance of the clear band. Plasminogen activator inhibitor (PAI) activity was measured by titrating samples with increasing amounts of tissue-type plasminogen activator (t-PA) (Boehringer Ingelheim) into a fixed volume of endothelial-cell-conditioned media.
as §1, with “zymographies. Lee O H, et al., Identification of angiogenic properties of insulin-like growth factor II in in vitro angiogenesis models. Brit J. Cancer. 2000; 82:385-391.” for “zymographies.”, “media. Shi G Y., et al., Plasmin and the regulation of tissue-type plasminogen activator biosynthesis in human endothelial cells. […]” for “media.”

With “TMD23: Recombinant human thrombomodulin fragment, amino acids Ala242-Ser515 of SEQ ID NO: 2: six EGF-like structures (D2) plus Ser/Thr-rich domain D3” the “Expression of MMP-2 and MMP-9” value (12 h) was “no significant effect” and the “Expression of MMP-1/3” value (MMP-3 confirmed by caseinolytic zymography) was “stimulated expression”.
